{"source": "patent US8178104B2", "about": "“Methods and compositions for targeting gC1qR/p32” (Sanford-Burnham Medical Research Institute, priority 2006, dated 2012)", "key": {"MDA-MB-435 cells": {"tested_on": "MDA-MB-435 cells", "experiment": "FACS analysis of FITC-peptide binding to MDA-MB-435 cells", "assay_type": "cell-based", "settings": "10 μM, 1 hour at 4° C.; compared with Lyp-1", "protocol": "MDA-MB-435 cells were transiently transfected with gC1qR/p32-specific or control siRNAs. […] The amount of fluorescence in living cells was analyzed by FACS. Cells incubated in the absence of peptide served as FITC negative control. Compared to control siRNA transfected cells, down-regulation of gC1qR/p32 expression (in the presence of gC1qR/p32 siRNA) caused a shift in the peak of Lyp-1 fluorescence but not control peptide fluorescence.\nCultured cells were detached with cell enzyme-free dissociation buffer (Gibco/Invitrogen) and collected in PBS containing 1% BSA (PBSB). Single cells suspensions from tumors were obtained as indicated above. For FACS staining, 2.5×10^5 cells were resuspended in 100 μl of PBSB and incubated with polyclonal anti-full-length gC1qR/p32 or rabbit IgG (20 μg/ml) in PBSB for 30 min at 4° C. The cells were washed in PBSB and stained with goat anti rabbit Alexa 488 (2.5 μg/ml) for 30 min at 4° C. For FACS analysis of bound FITC-peptides, cultured cells were detached as above and incubated with 10 μM of FITC-peptides in 10% FCS/DMEM for 1 hour at 4° C. After washes with PBSB, the cells were resuspended in PBS containing 2 μg/ml of propidium iodide (PI, Molecular Probes/Invitrogen) to distinguish between live and dead cells, and 10,000 cells per sample were analyzed using a BD Biosciences FACSort."}, "MDA-MB-435 tumors": {"tested_on": "MDA-MB-435 tumors", "experiment": "Tumor localization of intravenously injected FITC-LyP-1 peptide", "assay_type": "in vivo, mice", "settings": "circulation 1 hour; p32 immunohistochemical staining", "text": "Tumor localization of gC1qR/p32 and Lyp-1 peptide were visualized. gC1qR/p32, lymphatic or blood vessels, podoplanin and Meca32/CD31 were stained with fluorescently-labeled antibodies in MDA-MB-435 tumor xenografts. Polyclonal anti-gC1qR/p32 antibody recognizes cell clusters that lack blood vessels but contain lymphatics, or cells lining vessel-like structures positive for Podoplanin but not CD31 or Meca32. Fluorescein-conjugated Lyp-1 peptide was i.v. injected into mice bearing MDA-MB-435 tumors and allowed to circulate for 1 hour before removal of the tumor for gC1qR/p32 immunohistochemical analysis. Lyp-1 peptide localizes in gC1qR/p32-positive patches within the tumor."}, "MDA-MB-435": {"tested_on": "MDA-MB-435", "settings": "cited from earlier work"}, "tumors": {"tested_on": "tumors", "settings": "cited from earlier work"}, "HL-60 leukemia cells": {"tested_on": "HL-60 leukemia cells", "settings": "cited from earlier work"}, "BT549": {"tested_on": "BT549", "settings": "cited from earlier work"}, "gC1qR/p32": {"molecular_target": "T1, gC1qR/p32 (Homo sapiens, UniProt Q07021)", "T1 construct": "the specific band represents the mature form of a protein known as gC1qR/p32; endogenous in cells; host or cells: MDA-MB-435 cultured cells; MDA-MB-435 tumor xenografts", "T1 sequence (Q07021 74-282)": "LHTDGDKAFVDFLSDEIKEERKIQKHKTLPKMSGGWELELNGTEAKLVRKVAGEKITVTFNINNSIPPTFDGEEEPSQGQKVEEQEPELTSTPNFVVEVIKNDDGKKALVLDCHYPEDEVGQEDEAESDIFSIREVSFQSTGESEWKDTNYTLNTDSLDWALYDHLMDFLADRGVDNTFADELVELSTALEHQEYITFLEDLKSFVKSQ", "experiment": "Pull-down assay with biotinylated peptides from tumor cell extracts", "assay_type": "binding", "settings": "extracts of cultured tumor cells (MDA-MB-435); anti-gC1qR/p32 immunoblot", "protocol": "Pull down assays were performed with biotinylated Lyp-1 peptide (SEQ ID NO:1, CGNKRTRGC) from protein extracts derived from MDA-MB-435 cultured cells or MDA-MB-435 tumor xenografts. A tumor homing peptide, CREKA (SEQ ID NO:3), and a peptide CRV which resembles Lyp-1 in its amino acid composition and cyclic structure (SEQ ID NO:4, CRVRTRSGC), were used as negative controls. The Lyp-1 bound proteins were visualized using silver staining and immunoblotting. […] The arrow indicates a specific 33 kD band, which was identified as gC1qR/p32 by mass spectrometry. […] The antibody recognizes a band of 33 kD in the total proteins lysate and in the Lyp-1 pull down. Anti gC1qR/p32 reactive bands are not detected in the pull downs from both control peptides. […] The monoclonal antibody against gC1qR/p32 recognized a 75 kD and a 33 kD band only in the Lyp-1 peptide pull down.\nTo identify the receptor for the LyP-1 peptide, biotin-labeled LyP-1 and control peptides were incubated with extracts of MDA-MB-435 cells, a cell line that binds and internalizes LyP-1 (Laakkonen et al., 2004). LyP-1 bound a specific band in the 30 kDa range that was not seen in the controls (FIG. 3A, left panel), which were the pentapeptide CREKA (SEQ ID NO: 3) (Simberg et al., 2007) and the nonapeptide CRVRTRSGC (SEQ ID NO: 4), which resembles LyP-1 in its amino acid composition and cyclic structure. […] LyP-1 affinity isolation also yielded gC1qR/p32 from cultured BT549 breast carcinoma cells and from extracts of MDA-MB-435 xenograft tumors.\nStreptavidin agarose beads (Sigma-Aldrich) were resuspended in 2 volumes of phosphate buffer saline (PBS) and conjugated to 3 μg/10 μl beads of biotynilated peptides for 2 h on ice. After incubation, beads were washed three times with PBS/50 mM n-octyl-β-D glucopyranoside (Calbiochem; San Diego, Calif.) to remove free peptides. […] Bands that appeared in the LyP-1 but not control peptide pull down were cut out, digested with trypsin, and the resulting peptides were analyzed by matrix-assisted laser desorption ionization-time of flight (MALDI-TOF) mass spectrometry. […]"}, "C8161 melanoma cells": {"tested_on": "C8161 melanoma cells", "settings": "cited from earlier work"}, "mitochondrial membranes": {"tested_on": "mitochondrial membranes", "settings": "10 μM; cited from earlier work"}, "[1]": {"molecular_target": "T2, purified gC1qR/p32 protein (Homo sapiens, UniProt Q07021)", "T2 sequence (Q07021 74-282)": "T1 sequence (Q07021 74-282)", "experiment": "In vitro phage binding to purified gC1qR/p32 coated on microtiter wells", "settings": "5 μg/ml coated protein, 16 h at 37° C., plaque assay", "protocol": "Purified gC1qR/p32 or BSA, as a control, were coated onto microtiter wells (5 μg/ml) and targeted for binding with 10^8 pfu of insertless phage, Lyp-1 phage, or control phage carrying another tumor homing peptide (CREKA, SEQ ID NO:3). After 16 hours of incubation at 37° C., bound phages were eluted and quantified by plaque assay. The results are show in FIG. 2(a). Results are expressed as fold of Lyp-1 and CREKA (SEQ ID NO:3) phages recovered over insertless phage and are representative of five independent experiments.\nMicrotiter wells (Costar, Corning, N.Y.) were coated overnight at 4° C. with 5 μg/ml of either purified gC1qR/p32 or BSA (Sigma-Aldrich) in 100 μl/well of carbonate buffer (15 mM sodium carbonate, 35 mM sodium bicarbonate). Wells were washed three times with TBS and blocked with Pierce Superblock buffer according to the manufactures instructions. 10^8 pfu of LyP-1 and control phages were added to the wells in 100 μl/well of TBS/0.05% tween-20 and incubated for 16 h at 37° C. After 6 washes in TBS/0.05% tween-20, bound phages were eluted with 200 μl of Tris-HCl 1M pH 7.5/0.5% SDS for 30 min and subsequently quantified by plaque assay. […] Cells were washed 5 times with PBS/1% BSA and bound phages were quantified by plaque assay."}}, "note": "Bridge positions count the residues as written; N and C are the ends. Ends that are not written are not given here. * marks the point of attachment. FITC = O=C1OC2(c3ccc(O)cc3Oc3cc(O)ccc32)c2ccc(NC(=S)*)cc21", "data": [{"substance": "ARALPSQRSR [control peptide with same overall charge as LyP-1]", "values": [{"measurement": "binding of FITC conjugated peptide to cells", "setting": "MDA-MB-435 cells", "value": "less binding ability"}]}, {"substance": "FITC-LyP-1: fluorescein-conjugated LyP-1 peptide ({FITC}-CGNKRTRGC; disulfide 1-9 (inferred))", "values": [{"measurement": "tumor localization of intravenously injected peptide", "setting": "MDA-MB-435 tumors", "value": "accumulated in tumor areas with high expression levels of gC1qR/p32"}]}, {"substance": "CGNKRTRGC (disulfide 1-9 (inferred)) [LyP-1, tumor homing cyclic nonapeptide]", "values": [{"measurement": "LyP-1 binding", "setting": "MDA-MB-435", "value": "strong"}, {"measurement": "TUNEL-positive lesions in tumors", "setting": "tumors; in vivo peptide treatment", "value": "induced TUNEL-positive lesions"}, {"measurement": "tumor growth", "setting": "tumors; systemic administration", "value": "inhibits tumor growth"}, {"measurement": "LyP-1 binding", "setting": "HL-60 leukemia cells", "value": "not to significantly bind"}, {"measurement": "LyP-1 binding", "setting": "BT549", "value": "strong"}, {"measurement": "gC1qR/p32 bound/pulled down by biotinylated peptide", "setting": "gC1qR/p32", "value": "specifically bound"}, {"measurement": "LyP-1 binding", "setting": "C8161 melanoma cells", "value": "not to significantly bind"}]}, {"substance": "D(KLAKLAK)2", "values": [{"measurement": "mitochondrial swelling", "setting": "mitochondrial membranes", "value": "marked mitochondrial swelling"}]}, {"substance": "CNRRTKAGC (displayed on phage) [LyP-2]", "values": [{"measurement": "phage binding to purified gC1qR/p32 relative to insertless control phage", "setting": "[1]", "value": "did not significantly bind"}]}, {"substance": "CRVRTRSGC (disulfide 1-9 (inferred)) [control nonapeptide resembling Lyp-1 in amino acid composition and cyclic structure]", "values": [{"measurement": "gC1qR/p32 bound/pulled down by biotinylated peptide", "setting": "gC1qR/p32", "value": "not detected"}]}, {"substance": "CREKA [tumor homing pentapeptide used as negative control, as peptide and on phage]", "values": [{"measurement": "phage binding to purified gC1qR/p32 relative to insertless control phage", "setting": "[1]", "value": "essentially no interaction"}, {"measurement": "gC1qR/p32 bound/pulled down by biotinylated peptide", "setting": "gC1qR/p32", "value": "not detected"}]}]}
